Series [1] relates to full length SMN2 minigene mRNA containing SMN2 exon 7 (SMN2-A minigene). As to the kind of experiment: SMN2 minigene mRNA splicing RT-qPCR assay in cultured cells. Format: cell-based, human. The note with it: Homo sapiens, HEK293-H; HEK293H cells stably transfected with SMN2-A minigene, 24 hours, 7-point concentration curve; concentration giving 1.5-fold SMN2 full length mRNA vs vehicle; read-out: EC1.5x for production of full length SMN2 mRNA. The method in brief: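 HEK293H cells stably carrying the SMN2-A minigene were treated 24 h at 37 °C with a 7-point, 3.16-fold test compound series, in duplicate. Multiplex RT-qPCR measured exon 7-containing minigene FL mRNA, normalized to GAPDH and expressed relative to vehicle; EC1.5x is the concentration giving 1.5-fold FL mRNA.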
For orientation: In qPCR the cycle at which signal appears reflects the starting amount.

For series [2], the system named is Smn protein. The experiment in a line: Smn protein assay (Smn HTRF) in cultured cells. Format: cell-based, human. The note with it: Homo sapiens, Fibroblast, GM03813 SMA Type 1 patient fibroblasts, 48 hours, HTRF; for maximal fold induction: 7-point concentration data, relative to vehicle, read-out: maximum fold (Fold) increase of Smn protein; for EC (1.5-fold): concentration producing 1.5 times Smn protein vs DMSO vehicle, read-out: EC1.5x for Smn protein expression. The method in brief:
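SMA patient fibroblasts (5,000/well) were exposed to a 7-point, 3.16-fold compound dilution series for 48 hours at 37° C, in triplicate. Lysates were read by HTRF with anti-SMN d2/kryptate at 665/620 nm. Blank-corrected signal was expressed as fold over DMSO vehicle, giving the EC1.5x and the maximum fold increase.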
On the technique in general: In TR-FRET formats the signal depends on donor and acceptor labels being close together.

Usually melting point stands for the temperature of the solid-liquid transition.

Molecules are shown by their SMILES.

`C[C@H]1CN(c2ccc3oc(-c4ccc(OC(F)(F)F)cc4)cc(=O)c3c2)CCN1` [Cpd 65, 6-[(3S)-3-methylpiperazin-1-yl]-2-[4-(trifluoromethoxy)phenyl]-4H-chromen-4-one] had a melting point of 138 to 140 °C. In addition, in series [1], the EC (1.5-fold) fell in the range of 1 to 3 µM. Besides, the maximal fold induction in series [2] is at most 1.2.
`O=c1cc(-c2cccc(F)c2)oc2ccc(N3CCNCC3)cc12` [Cpd 66, 2-(3-fluorophenyl)-6-(piperazin-1-yl)-4H-chromen-4-one] displayed a melting point of 150 to 152 °C. The EC (1.5-fold) in series [1] lay in the range of 0.1 to 0.3 µM. For the same molecule, in series [2], the maximal fold induction fell in the range of 1.35 to 1.5.
In turn, `O=c1cc(-c2cccc(C(F)(F)F)c2)oc2ccc(N3CCNCC3)cc12` [Cpd 67, 6-(piperazin-1-yl)-2-[3-(trifluoromethyl)phenyl]-4H-chromen-4-one] returned a melting point of 174 to 176 °C. Moreover, the EC (1.5-fold) in series [1] was 0.1 to 0.3 µM. For the same molecule, in series [2], the maximal fold induction lay within 1.5 to 1.65 and the EC (1.5-fold) was 0.3 to 1 µM.
For the molecule `COc1ccc(-c2cc(=O)c3cc(N4CCNCC4)ccc3o2)cc1OC(F)(F)F` [Cpd 68, 2-[4-methoxy-3-(trifluoromethoxy)phenyl]-6-(piperazin-1-yl)-4H-chromen-4-one], the melting point was 104 to 106 °C. Also, the EC (1.5-fold) in series [1] was in the range of 0.3 to 1 µM. Further, in series [2], the maximal fold induction was at most 1.2.
The corresponding values for `COc1ccc(-c2cc(=O)c3cc(N4CCNCC4)ccc3o2)cc1C(F)(F)F` [Cpd 69, 2-[4-methoxy-3-(trifluoromethyl)phenyl]-6-(piperazin-1-yl)-4H-chromen-4-one] are 128 to 132 °C, 0.3 to 1 µM and 1.35 to 1.5.
Molecule `COc1ccc(-c2cc(=O)c3cc(N4CCN[C@@H](C)C4)ccc3o2)cc1OC(F)(F)F` [Cpd 70, 2-[4-methoxy-3-(trifluoromethoxy)phenyl]-6-[(3S)-3-methylpiperazin-1-yl]-4H-chromen-4-one] yielded a melting point of 142 to 146 °C. Also, the EC (1.5-fold) in series [1] lay within 0.3 to 1 µM. The maximal fold induction in series [2] was in the range of 1.2 to 1.35.
Regarding `COc1ccc(-c2cc(=O)c3cc(N4CCN[C@@H](C)C4)ccc3o2)cc1C(F)(F)F` [Cpd 71, 2-[4-methoxy-3-(trifluoromethyl)phenyl]-6-[(3S)-3-methylpiperazin-1-yl]-4H-chromen-4-one], the melting point lay within 182 to 184 °C. In series [1], the EC (1.5-fold) is 0.1 to 0.3 µM. Besides, in series [2], the maximal fold induction was 1.35 to 1.5 and the EC (1.5-fold) was 3 to 10 µM.
The corresponding values for `Cc1cn2cc(-c3cc(=O)c4cc(N5CCN[C@@H](C)C5)ccc4o3)nc2cn1` [Cpd 73, 2-(6-methylimidazo[1,2-a]pyrazin-2-yl)-6-[(3S)-3-methylpiperazin-1-yl]-4H-chromen-4-one] are 212 to 216 °C, at most 0.1 µM, above 1.65 and at most 0.3 µM.
Turning to `O=c1cc(-c2cncc(F)c2)oc2ccc(N3CCNCC3)cc12` [Cpd 74, 2-(5-fluoropyridin-3-yl)-6-(piperazin-1-yl)-4H-chromen-4-one], the melting point was in the range of 182 to 184 °C. In addition, in series [1], the EC (1.5-fold) is 0.3 to 1 µM. Besides, in series [2], the maximal fold induction was 1.5 to 1.65 and the EC (1.5-fold) was in the range of 1 to 3 µM.
The matching figures for `C[C@H]1CN(c2ccc3oc(-c4cncc(F)c4)cc(=O)c3c2)CCN1` [Cpd 75, 2-(5-fluoropyridin-3-yl)-6-[(3S)-3-methylpiperazin-1-yl]-4H-chromen-4-one]: 168 to 172 °C, 0.3 to 1 µM, 1.5 to 1.65 and 1 to 3 µM.
`Cc1csc(-c2cc(=O)c3cc(N4CCNCC4)ccc3o2)n1` [Cpd 76, 2-(4-methyl-1,3-thiazol-2-yl)-6-(piperazin-1-yl)-4H-chromen-4-one]: the melting point was in the range of 179 to 182 °C. Besides, in series [1], the EC (1.5-fold) was 0.3 to 1 µM. Also, in series [2], the maximal fold induction was in the range of 1.5 to 1.65 and the EC (1.5-fold) is 1 to 3 µM.
The matching figures for `C[C@H]1CN(c2ccc3oc(-c4cccc(F)c4)cc(=O)c3c2)CCN1` [Cpd 77, 2-(3-fluorophenyl)-6-[(3S)-3-methylpiperazin-1-yl]-4H-chromen-4-one]: 170 to 172 °C, 0.1 to 0.3 µM, 1.5 to 1.65 and 0.3 to 1 µM.
The matching figures for `C[C@H]1CN(c2ccc3oc(-c4cccc(C(F)(F)F)c4)cc(=O)c3c2)CCN1` [Cpd 78, 6-[(3S)-3-methylpiperazin-1-yl]-2-[3-(trifluoromethyl)phenyl]-4H-chromen-4-one]: 150 to 152 °C, at most 0.1 µM, above 1.65 and at most 0.3 µM.
The matching figures for `O=c1cc(-c2cc(F)cc(F)c2)oc2ccc(N3CCNCC3)cc12` [Cpd 79, 2-(3,5-difluorophenyl)-6-(piperazin-1-yl)-4H-chromen-4-one]: 180 to 190 °C, at most 0.1 µM, 1.35 to 1.5 and 3 to 10 µM.
For `C[C@H]1CN(c2ccc3oc(-c4cc(F)cc(F)c4)cc(=O)c3c2)CCN1` [Cpd 80, 2-(3,5-difluorophenyl)-6-[(3S)-3-methylpiperazin-1-yl]-4H-chromen-4-one], the melting point lay in the range of 175 to 178 °C. Moreover, the EC (1.5-fold) in series [1] was at most 0.1 µM. In series [2], the maximal fold induction is 1.5 to 1.65 and the EC (1.5-fold) lay in the range of 0.3 to 1 µM.
